Experimental data as given in US12091411B2, “IRAK degraders and uses thereof” (Kymera Therapeutics, Inc., priority 2022, dated 2024).
Where two headings read alike, the source gives them in different places.

Target: T1, IRAK4 (Homo sapiens, UniProt Q9NWZ3)
T1 construct: Degradation of IRAK4 in OCI-LY10 was quantitatively measured using Meso Scale Discovery technology; endogenous in cells; host or cells: OCI-LY10
T1 sequence (Q9NWZ3 1-460): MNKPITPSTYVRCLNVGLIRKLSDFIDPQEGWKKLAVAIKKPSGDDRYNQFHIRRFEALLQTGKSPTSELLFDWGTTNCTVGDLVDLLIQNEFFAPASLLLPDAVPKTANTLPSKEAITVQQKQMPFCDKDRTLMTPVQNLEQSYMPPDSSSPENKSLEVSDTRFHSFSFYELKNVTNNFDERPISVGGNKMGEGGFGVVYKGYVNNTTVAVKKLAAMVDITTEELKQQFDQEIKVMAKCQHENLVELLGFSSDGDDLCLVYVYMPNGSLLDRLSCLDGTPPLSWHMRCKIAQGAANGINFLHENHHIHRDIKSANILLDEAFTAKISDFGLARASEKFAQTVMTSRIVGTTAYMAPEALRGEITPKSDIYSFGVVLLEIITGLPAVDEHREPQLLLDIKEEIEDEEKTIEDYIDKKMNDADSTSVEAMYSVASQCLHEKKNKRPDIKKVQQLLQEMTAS
Test: IRAK4 MSD Degradation in OCI-LY10
Assay type: cell-based
Conditions: OCI-LY10 cells
Method in brief: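 OCI-LY10 cells exposed to 8-point 1:3 compound series (top 1 to 10 μM) for 4 to 24 h at 37 °C, 5% CO2. Lysate IRAK4 quantified by MSD sandwich immunoassay. DC50 from three-parameter logistic fit, binned A (<0.01 μM) to D (>0.2 μM or not tested).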

[1] = 4 hrs incubation, MSD, read-out: IRAK4 degradation in OCI-LY10 at 4 hrs: DC50
[2] = 24 hrs incubation, MSD, read-out: IRAK4 degradation in OCI-LY10 at 24 hrs: DC50
[3] = 4 hrs incubation, read-out: IRAK4 degradation in OCI-LY10 at 4 hrs: DC50
[4] = 24 hrs incubation, read-out: IRAK4 degradation in OCI-LY10 at 24 hrs: DC50

DC50 [1] | DC50 [2] | DC50 [3] | DC50 [4] | SMILES
> 200 nM | > 200 nM |  |  | COc1cc2nn([C@H]3CC[C@H](CN4CC[C@@H](c5cccc6c5n(C)c(=O)n6C5CCC(=O)NC5=O)[C@H](F)C4)CC3)cc2cc1NC(=O)c1cccc(C(F)(F)F)n1 (stereo partly drawn) [I-783]
> 200 nM | > 200 nM |  |  | COc1cc2nn([C@H]3CC[C@H](CN4CC[C@H](c5cccc6c5n(C)c(=O)n6C5CCC(=O)NC5=O)[C@@H](F)C4)CC3)cc2cc1NC(=O)c1cccc(C(F)(F)F)n1 (stereo partly drawn) [I-784]
> 200 nM | > 200 nM |  |  | Cn1c(=O)n(C2CCC(=O)NC2=O)c2cccc(N3CC(CCC4(F)CN(C[C@H]5CC[C@H](n6cc(NC(=O)c7cnn8ccc(N9C[C@H]%10C[C@@H]9CO%10)nc78)c(C(F)F)n6)CC5)C4)C3)c21 (stereo partly drawn) [I-785]
> 200 nM |  |  |  | Cn1c(=O)n(C2CCC(=O)NC2=O)c2cccc(N3CCC(OC[C@H]4CC[C@H](n5cc(NC(=O)c6cnn7cccnc67)c(C(F)F)n5)CC4)CC3)c21 (stereo partly drawn) [I-786]
> 200 nM | > 200 nM |  |  | CN(CC1(F)CCN(c2cccc3c2n(C)c(=O)n3C2CCC(=O)NC2=O)CC1)C1CCC(n2cc3cc(NC(=O)c4cccc(C(F)(F)F)n4)ncc3n2)CC1 (stereo not drawn) [I-787]
> 200 nM | > 200 nM |  |  | CN(CC1(F)CCN(c2cccc3c2n(C)c(=O)n3C2CCC(=O)NC2=O)CC1)C1CCC(n2cc3cc(NC(=O)c4cccc(C(F)(F)F)n4)ccc3n2)CC1 (stereo not drawn) [I-788]
> 200 nM | > 200 nM |  |  | Cn1c(=O)n(C2CCC(=O)NC2=O)c2cccc(N3CC(F)(CN(C)[C@H]4CC[C@H](n5cc6cc(NC(=O)c7cccc(C(F)(F)F)n7)ncc6n5)CC4)C3)c21 (stereo partly drawn) [I-789]
> 200 nM | > 200 nM |  |  | Cn1c(=O)n(C2CCC(=O)NC2=O)c2cccc(N3CC(F)(CN(C)[C@H]4CC[C@H](n5cc6cc(NC(=O)c7cccc(C(F)(F)F)n7)ccc6n5)CC4)C3)c21 (stereo partly drawn) [I-790]
> 200 nM | > 200 nM |  |  | Cn1c(=O)n(C2CCC(=O)NC2=O)c2cccc(N3CCC(O[C@H]4CC[C@H](n5cc6cc(NC(=O)c7cccc(C(F)(F)F)n7)ncc6n5)CC4)CC3)c21 (stereo partly drawn) [I-791]
> 200 nM | > 200 nM |  |  | Cn1c(=O)n(C2CCC(=O)NC2=O)c2cccc(N3CCC(O[C@H]4CC[C@H](n5cc6cc(NC(=O)c7cccc(C(F)(F)F)n7)ccc6n5)CC4)CC3)c21 (stereo partly drawn) [I-792]
> 200 nM | > 200 nM |  |  | Cn1c(=O)n(C2CCC(=O)NC2=O)c2cccc(N3CCC(O[C@H]4CC[C@H](n5cc6cc(NC(=O)c7cccc(C(F)(F)F)n7)ncc6n5)CC4)C3)c21 (stereo partly drawn) [I-793]
 |  | > 200 nM | > 200 nM | Cn1c(=O)n(C2CCC(=O)NC2=O)c2cccc(N3CCC(O[C@H]4CC[C@H](n5cc6cc(NC(=O)c7cccc(C(F)(F)F)n7)ccc6n5)CC4)C3)c21 (stereo partly drawn) [I-794]
 |  | > 200 nM | > 200 nM | Cn1c(=O)n(C2CCC(=O)NC2=O)c2cccc(N3CC(O[C@H]4CC[C@H](n5cc6cc(NC(=O)c7cccc(C(F)(F)F)n7)ncc6n5)CC4)C3)c21 (stereo partly drawn) [I-795]
 |  | > 200 nM | > 200 nM | Cn1c(=O)n(C2CCC(=O)NC2=O)c2cccc(N3CC(O[C@H]4CC[C@H](n5cc6cc(NC(=O)c7cccc(C(F)(F)F)n7)ccc6n5)CC4)C3)c21 (stereo partly drawn) [I-796]
